Measurements as given in ChEMBL document CHEMBL5321216, “Discovery of bipyridine amide derivatives targeting pRXRα-PLK1 interaction for anticancer therapy” (Eur J Med Chem, 2023).
Calls of active or inactive are those of the source. The rule behind the calls is not given here.

Key:
MDA-MB-231 [1] = assay: Induction of RXRalpha-mediated mitotic arrest in human MDA-MB-231 cells assessed as accumulation of pRXRalpha protein at 7.8 to 500 nM measured after 24 hrs by Western blot analysis; type: functional, cell-based; conditions: dose 7.8-500 nM
MDA-MB-231 [2] = assay: Induction of cell cycle arrest in human MDA-MB-231 cells assessed as accumulation of cells at G2 phase at 62.5 nM incubated for 12 hrs by flow cytometry analysis (reference value: 15.91%); type: functional
MDA-MB-231 [3] = assay: Induction of cell cycle arrest in human MDA-MB-231 cells assessed as accumulation of cells at G1 phase at 125 nM incubated for 12 hrs by flow cytometry analysis (reference value: 43.2%); type: functional
A549 = assay: Induction of cell cycle arrest in wild type human A549 cells assessed as accumulation of cells at S phase at 125 nM incubated for 12 hrs by DAPI staining based flow cytometry analysis (reference value: 41.12 %); type: functional
MDA-MB-231 [4] = assay: Induction of apoptosis in human MDA-MB-231 cells assessed as live cells at 250 nM incubated for 24 hrs by annexin V-FITC/PI staining based flow cytometry analysis (reference value: 91.3%); type: functional
[5] = Cytotoxicity against HK-2 cells assessed as inhibition of cell proliferation incubated for 72 hrs by MTT assay; type: toxicity, cell-based; conditions: human

Structure (SMILES): O=C(/C=C/c1ccccc1)Nc1cc(-c2ccnc(N3CCC(CO)CC3)c2)ccn1
- Activity (MDA-MB-231 [1]): Active
- Activity (MDA-MB-231 [2]): 81.68%
- Activity (MDA-MB-231 [3]): 0.07%
- Activity (A549): 18.11%
- Activity (MDA-MB-231 [4]): 57.9%
- IC50 at 72 h [5]: 372 nM
